Results as given in patent US9695155B2, “Herbicidal substituted pyrimidinyloxy benzene compounds” (E. I. DU PONT DE NEMOURS AND COMPANY, priority 2013, dated 2017).

Assays:
[1] = system: oilseed rape; assay: Test C postemergence; format: in vivo, Brassica napus
Outline: (§1)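 Rated visually on 0–100 (100 = complete control) after 13–15 days under glass. Treatments went onto freshly seeded loam/sand soil or onto emerged plants at the 1- to 4-leaf stage, using a surfactant-containing solvent formulation.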

[2] = system: Italian ryegrass; assay: Test C postemergence; format: in vivo, Lolium multiflorum
Outline: as §1

[3] = system: pigweed; assay: Test A postemergence; format: in vivo, Amaranthus retroflexus; settings: 0 to 100 scale where 0 is no effect and 100 is complete control
Outline: (§2)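 Visual injury scored 0–100 (100 = complete control) against untreated controls about 10 days after treatment in a greenhouse. Test chemicals, formulated with surfactant in non-phytotoxic solvent, were sprayed on soil preemergence or on 2-10 cm, one- to two-leaf plants postemergence.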

[4] = system: giant foxtail; assay: Test A preemergence; format: in vivo, Setaria faberii
Outline: as §2

[5] = system: soybean; assay: Test C postemergence; format: in vivo, Glycine max
Outline: as §1

[6] = system: large (Lg) crabgrass; assay: Test A postemergence; format: in vivo, Digitaria sanguinalis
Outline: as §2

[7] = system: barnyardgrass; assay: Test B flooded paddy test; format: in vivo, Echinochloa crus-galli; settings: Flood, 250 g ai/ha, 0 to 100 scale where 0 is no effect and 100 is complete control
Outline: (§3)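 Post-emergence paddy-water application at the 2-leaf stage, with 3 cm flood kept for the whole test. Response was judged visually relative to controls after 13 to 15 greenhouse days, 0 indicating no effect and 100 complete control.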

[8] = system: lambsquarters; assay: Test C postemergence; format: in vivo, Chenopodium album
Outline: as §1

[9] = system: sedge, umbrella; assay: Test B flooded paddy test; format: in vivo, Cyperus difformis; settings: Flood, 250 g ai/ha, 0 to 100 scale where 0 is no effect and 100 is complete control
Outline: as §3

[10] = system: wheat; assay: Test A preemergence; format: in vivo, Triticum aestivum; settings: for Plant response rating, Wheat: 125 g ai/ha, 0 to 100 scale where 0 is no effect and 100 is complete control
Outline: as §2

[11] = system: rice; assay: Test B flooded paddy test; format: in vivo, Oryza sativa; settings: Flood, 250 g ai/ha, 0 to 100 scale where 0 is no effect and 100 is complete control
Outline: as §3

[12] = system: chickweed; assay: Test C postemergence; format: in vivo, Stellaria media
Outline: as §1

[13] = system: giant foxtail; assay: Test A postemergence; format: in vivo, Setaria faberii; settings: 0 to 100 scale where 0 is no effect and 100 is complete control
Outline: as §2

[14] = system: galium; assay: Test C postemergence; format: in vivo, Galium aparine
Outline: as §1

[15] = system: waterhemp; assay: Test C postemergence; format: in vivo, Amaranthus rudis
Outline: as §1

[16] = system: corn; assay: Test A preemergence; format: in vivo, Zea mays
Outline: as §2

[17] = Postemergence, 31 g ai/ha, scale 0 to 100 (0 no effect, 100 complete control), 13 to 15 days
[18] = Postemergence, 62 g ai/ha, scale 0 to 100 (0 no effect, 100 complete control)
[19] = 125 g ai/ha, 0 to 100 scale where 0 is no effect and 100 is complete control
[20] = 500 g ai/ha, 0 to 100 scale, 0 no effect, 100 complete control, approx. 10 days
[21] = 16 g ai/ha, postemergence, visual rating, scale 0 to 100 (0 no effect, 100 complete control), 13 to 15 days

## FC(F)c1cnn(-c2ccccc2Oc2ncc(Cl)cn2)c1 [Compound 80, 5-chloro-2-[2-[4-(difluoromethyl)-1H-pyrazol-1-yl]phenoxy]pyrimidine]
[1]; Brassica napus, post-emergence, 125 g ai/ha, postemergence, read-out: Plant response rating (0 to 100), Oilseed Rape
  plant injury at 125 g/ha: 90%
[1]; Brassica napus, post-emergence, Postemergence, 31 g ai/ha, scale 0 to 100 (0 no effect, 100 complete control), 13 to 15 days, read-out: Plant response rating, Oilseed Rape
  plant injury at 31 g/ha: 70%
[1]; Brassica napus, post-emergence, Postemergence, 62 g ai/ha, scale 0 to 100 (0 no effect, 100 complete control), read-out: Plant response rating, Oilseed Rape
  plant injury at 62 g/ha: 80%
[2]; Lolium multiflorum, post-emergence, 125 g ai/ha, postemergence, read-out: Plant response rating (0 to 100), Ryegrass, Italian
  pest or weed control at 125 g/ha: 5%
[2]; Lolium multiflorum, post-emergence, Postemergence, 31 g ai/ha, scale 0 to 100 (0 no effect, 100 complete control), 13 to 15 days, read-out: Plant response rating, Ryegrass, Italian
  pest or weed control at 31 g/ha: 0%
[2]; Lolium multiflorum, post-emergence, Postemergence, 62 g ai/ha, scale 0 to 100 (0 no effect, 100 complete control), read-out: Plant response rating, Ryegrass, Italian
  pest or weed control at 62 g/ha: 20%
[3]; Amaranthus retroflexus, post-emergence, 125 g ai/ha, read-out: Plant response rating, Pigweed
  pest or weed control at 125 g/ha: 100%
[3]; Amaranthus retroflexus, post-emergence, 500 g ai/ha, read-out: Plant response rating, Pigweed
  pest or weed control at 500 g/ha: 100%
[4]; Setaria faberi, pre-emergence, 240 h, 125 g ai/ha, 0 to 100 scale where 0 is no effect and 100 is complete control, read-out: Plant response rating, Foxtail, Giant
  pest or weed control at 125 g/ha: 90%
[4]; Setaria faberi, pre-emergence, 240 h, 500 g ai/ha, 0 to 100 scale, 0 no effect, 100 complete control, approx. 10 days, read-out: Foxtail, Giant plant response rating
  pest or weed control at 500 g/ha: 100%
[5]; Glycine max, post-emergence, 125 g ai/ha, postemergence, read-out: Plant response rating (0 to 100), Soybean
  Soybean plant response rating (crop injury, 0-100 scale) at 125 g/ha: 80%
[5]; Glycine max, post-emergence, Postemergence, 31 g ai/ha, scale 0 to 100 (0 no effect, 100 complete control), 13 to 15 days
  Soybean plant response rating (crop injury, 0-100 scale) at 31 g/ha: 60%
[5]; Glycine max, post-emergence, Postemergence, 62 g ai/ha, scale 0 to 100 (0 no effect, 100 complete control)
  Soybean plant response rating (crop injury, 0-100 scale) at 62 g/ha: 75%
[6]; Digitaria sanguinalis, post-emergence, 240 h, 125 g ai/ha, 0 to 100 scale where 0 is no effect and 100 is complete control, read-out: Plant response rating, Crabgrass, Large
  pest or weed control at 125 g/ha: 80%
[6]; Digitaria sanguinalis, post-emergence, 240 h, 500 g ai/ha, 0 to 100 scale, 0 no effect, 100 complete control, read-out: Plant response rating Crabgrass, Large
  pest or weed control at 500 g/ha: 100%
[7]; Echinochloa crus-galli, read-out: Plant response rating, Barnyardgrass
  pest or weed control at 250 g/ha: 0%
[8]; Chenopodium album, post-emergence, 125 g ai/ha, postemergence, read-out: Plant response rating (0 to 100), Lambsquarters
  pest or weed control at 125 g/ha: 55%
[8]; Chenopodium album, post-emergence, Postemergence, 31 g ai/ha, scale 0 to 100 (0 no effect, 100 complete control), 13 to 15 days, read-out: Plant response rating, Lambsquarters
  pest or weed control at 31 g/ha: 60%
[8]; Chenopodium album, post-emergence, Postemergence, 62 g ai/ha, scale 0 to 100 (0 no effect, 100 complete control), read-out: Plant response rating, Lambsquarters
  pest or weed control at 62 g/ha: 55%
[9]; Cyperus difformis, read-out: Plant response rating, Sedge, Umbrella
  pest or weed control at 250 g/ha: 80%
[10]
  Plant response rating, Wheat: 10
[10]; Triticum aestivum, pre-emergence, 240 h, 500 g ai/ha, 0 to 100 scale, 0 no effect, 100 complete control, approx. 10 days, read-out: Wheat plant response rating
  plant injury at 500 g/ha: 50%
[11]; Oryza sativa, read-out: Plant response rating, Rice
  plant injury at 250 g/ha: 0%
[12]; Stellaria media, post-emergence, 16 g ai/ha, postemergence, visual rating, scale 0 to 100 (0 no effect, 100 complete control), 13 to 15 days, read-out: Chickweed plant response rating
  pest or weed control at 16 g/ha: 50%
[12]; Stellaria media, post-emergence, 125 g ai/ha, postemergence, read-out: Plant response rating (0 to 100), Chickweed
  pest or weed control at 125 g/ha: 70%
[12]; Stellaria media, post-emergence, Postemergence, 31 g ai/ha, scale 0 to 100 (0 no effect, 100 complete control), 13 to 15 days, read-out: Plant response rating, Chickweed
  pest or weed control at 31 g/ha: 60%
[12]; Stellaria media, post-emergence, Postemergence, 62 g ai/ha, scale 0 to 100 (0 no effect, 100 complete control), read-out: Plant response rating, Chickweed
  pest or weed control at 62 g/ha: 65%
[13]; Setaria faberi, post-emergence, 240 h, 125 g ai/ha, read-out: Plant response rating, Foxtail, Giant
  pest or weed control at 125 g/ha: 80%
[13]; Setaria faberi, post-emergence, 240 h, 500 g ai/ha, read-out: Plant response rating, Foxtail, Giant
  pest or weed control at 500 g/ha: 90%
[14]; Galium, post-emergence, 16 g ai/ha, postemergence, visual rating, scale 0 to 100 (0 no effect, 100 complete control), 13 to 15 days, read-out: Galium plant response rating
  pest or weed control at 16 g/ha: 55%
[14]; Galium, post-emergence, 125 g ai/ha, postemergence, read-out: Plant response rating (0 to 100), Galium
  pest or weed control at 125 g/ha: 95%
[14]; Galium, post-emergence, Postemergence, 31 g ai/ha, scale 0 to 100 (0 no effect, 100 complete control), 13 to 15 days, read-out: Plant response rating, Galium
  pest or weed control at 31 g/ha: 70%
[14]; Galium, post-emergence, Postemergence, 62 g ai/ha, scale 0 to 100 (0 no effect, 100 complete control), read-out: Plant response rating, Galium
  pest or weed control at 62 g/ha: 85%
[15]; Amaranthus tuberculatus, post-emergence, 125 g ai/ha, postemergence, read-out: Plant response rating (0 to 100), Waterhemp
  pest or weed control at 125 g/ha: 90%
[15]; Amaranthus tuberculatus, post-emergence, Postemergence, 31 g ai/ha, scale 0 to 100 (0 no effect, 100 complete control), 13 to 15 days, read-out: Plant response rating, Waterhemp
  pest or weed control at 31 g/ha: 65%
[15]; Amaranthus tuberculatus, post-emergence, Postemergence, 62 g ai/ha, scale 0 to 100 (0 no effect, 100 complete control), read-out: Plant response rating, Waterhemp
  pest or weed control at 62 g/ha: 70%
[16]; Zea mays, pre-emergence, 240 h, 125 g ai/ha, 0 to 100 scale where 0 is no effect and 100 is complete control
  Corn plant response rating (crop injury, 0 = no effect, 100 = complete kill) at 125 g/ha: 0%
[16]; Zea mays, pre-emergence, 240 h, 500 g ai/ha, 0 to 100 scale, 0 no effect, 100 complete control, approx. 10 days, read-out: Corn plant response rating
  plant injury at 500 g/ha: 40%

## Fc1cnc(Oc2cccc(C(F)F)c2-n2cc(Cl)cn2)nc1 [Compound 94]
[1]; 125 g ai/ha, postemergence
  Plant response rating (0 to 100), Oilseed Rape: 80
[1]; [17]
  Plant response rating, Oilseed Rape: 50
[1]; [18]
  Plant response rating, Oilseed Rape: 50
[2]; 125 g ai/ha, postemergence
  Plant response rating (0 to 100), Ryegrass, Italian: 5
[2]; [17]
  Plant response rating, Ryegrass, Italian: 0
[2]; [18]
  Plant response rating, Ryegrass, Italian: 0
[3]; 125 g ai/ha
  Plant response rating, Pigweed: 100
[3]; 500 g ai/ha
  Plant response rating, Pigweed: 100
[4]; [19]
  Plant response rating, Foxtail, Giant: 100
[4]; [20]
  Foxtail, Giant plant response rating: 100
[5]; 125 g ai/ha, postemergence
  Plant response rating (0 to 100), Soybean: 80
[5]; [17]
  Plant response rating, Soybean: 45
[5]; [18]
  Plant response rating, Soybean: 85
[6]; [19]
  Plant response rating, Crabgrass, Large: 50
[6]; 500 g ai/ha, 0 to 100 scale where 0 is no effect and 100 is complete control
  Plant response rating, Crabgrass, Large: 90
[7]
  Plant response rating, Barnyardgrass: 0
[8]; 125 g ai/ha, postemergence
  Plant response rating (0 to 100), Lambsquarters: 85
[8]; [17]
  Plant response rating, Lambsquarters: 65
[8]; [18]
  Plant response rating, Lambsquarters: 75
[9]
  Plant response rating, Sedge, Umbrella: 30
[10]
  Plant response rating, Wheat: 0
[11]
  Plant response rating, Rice: 0
[12]; [21]
  Chickweed plant response rating: 10
[12]; 125 g ai/ha, postemergence
  Plant response rating (0 to 100), Chickweed: 70
[12]; [17]
  Plant response rating, Chickweed: 60
[12]; [18]
  Plant response rating, Chickweed: 60
[13]; 125 g ai/ha
  Plant response rating, Foxtail, Giant: 70
[13]; 500 g ai/ha
  Plant response rating, Foxtail, Giant: 90
[14]; [21]
  Galium plant response rating: 45
[14]; 125 g ai/ha, postemergence
  Plant response rating (0 to 100), Galium: 80
[14]; [17]
  Plant response rating, Galium: 70
[14]; [18]
  Plant response rating, Galium: 80
[15]; 125 g ai/ha, postemergence
  Plant response rating (0 to 100), Waterhemp: 70
[15]; [17]
  Plant response rating, Waterhemp: 80
[15]; [18]
  Plant response rating, Waterhemp: 75
[16]; [19]
  Plant response rating, Corn: 0
[16]; [20]
  Corn plant response rating: 30
